Reference: patent publication US11702402B2, “Small molecules that block proteasome-associated ubiquitin receptor RPN13 function and uses thereof” (DANA-FARBER CANCER INSTITUTE, INC., priority 2018, dated 2023)
Where a SMILES comes first, the peptide text is derived from it. The star is where a group is joined. Cbz = O=C(OCc1ccccc1)*

Experiments:
[1] = system: multiple myeloma cell lines; assay: Viability of a panel of multiple myeloma cell lines; assay type: cell-based, Human; conditions: multiple myeloma cell lines; 48 hours; Wst-1
Text: FIGS. […] Wst-1 assay was used to test cell viability. FIGS. 6A and 6B show the effect of exemplary bifunctional compounds WL40 and WL44 on multiple myeloma cell lines.

[2] = system: MM.1S CRBN KO cells; assay: MM.1S CRBN KO cell viability; assay type: cell-based, Human; conditions: MM.1S-CRBN KO; 24 hours; Wst-1
Text: FIGS. […] Wst-1 assay was used to test cell viability.
The experiment was repeated twice and JQRA concentration was increased (as indicated) at the second time.

[3] = system: normal PBMCs; assay: Viability of normal PBMCs; assay type: cell-based, Human; conditions: at the IC50; 48 hours; Wst-1
Method: FIGS. 5A and 5B show PBMCs from normal healthy donor treated with WL40 and WL44 at the indicated concentrations for 48 hours. […]
The IC50 of WL40 for cell lines is shown.

[4] = target: RPN13 (Homo sapiens, UniProt Q16186); assay: Rpn13 immunoblot in MM.1S cells; assay type: cell-based; parameters: endogenous in cells; host or cells: MM.1S; MM.1S-CRBN KO; RPMI-8226; ANBL6.BR
Method: Protein lysates were loaded on SDS-PAGE and transferred to PVDF membrane, and then immunoblotted with anti-alpha tubulin and Rpn13 antibodies.
In FIG. 17, MM.1S cells were treated with RA190 or JQRA at 200 nM and 400 nM, respectively, for 48 hours; and treated with RA190 or JQRA at 200 nM and 800 nM, respectively, for 48 hours. Protein lysates were loaded on SDS-PAGE and transferred to PVDF membrane, and then immunoblotted with anti-alpha tubulin and Rpn13 antibodies.
MM.1S cells, which were treated with DMSO control, bortezomib, or WL40 at indicated concentration for 3 hours; protein lysates were analyzed for different proteasome activities (CT-L, chymotrypsin-like; T-L, trypsin-like; C-L, caspase-like). FIG. 20B is a bar graph showing percent proteasome activity after normalization with DMSO control (mean±SD; n=3). Recombinant 20S proteasome was incubated with DMSO, bortezomib, or WL40 for 30 minutes, followed by assessment of the above-noted proteasome activities. FIG. 20C MM.1S cells were pretreated with exemplary proteasome inhibitor MG132 (10 μM) for 1 hour, followed by addition of WL40 (400 nM) for 8 hours. […] Total protein lysates were subjected to immunoblots for Rpn13 and α-tubulin. […] FIG. 20E ANBL6.BR cells were treated with WL40 (400 nM) or RA190 (500 nM) for 16 hours; protein lysates were subjected to immunoblot analysis using anti-Rpn13 or anti-β-actin Abs.
Cellular protein extracts were prepared using RIPA lysis buffer (50 mM Tris-HCl, 150 mM NaCl, 1% NP-40, 0.5% sodium deoxycholate, and 0.1% SDS). Protein lysates were subjected to immunoblotting using antibodies against poly ADP ribose polymerase (PARP, BD Bioscience Pharmingen, San Diego, Calif.), caspase 3, caspase 8, p53 (Santa Cruz Biotechnology), caspase 9, p-eIF2a (Abeam, Cambridge, Mass.), caspase 7, cyclin B1, CDC25C, CDCl2, p21, Rpn13, PERK, BIP, Calnexin, GFP, LC3A/B, α-tubulin (Cell Signaling, Beverly, Mass.), polyubiquitin (Enzo Life Sciences, Inc., Farmingdale, N.Y.), or β-actin (Sigma-Aldrich, St. Louis, Mo.).
Next, it was examined whether WL40 decreases cellular Rpn13 levels in MM cells. MM.1S cells were treated with various concentrations of WL40 (20 0 nM, 400 nM, or 800 nM) for 4 hours, 8 hours, and 16 hours; protein lysates were then analyzed for Rpn13 levels using immunoblot analysis. […] Decrease in Rpn13 levels was detectable as early as 8 hours after WL40 treatment and maximally (95%) reduced at 16 hours. Rpn13 protein level reduction was not observed with RA190 treatment (FIG. 19E, lower panel). There was no change in protein levels of tubulin, used as a loading control (FIG. 19E). To further corroborate the findings, MM.1S cells were treated with WL40, and then analyzed intracellular alterations in Rpn13 using flow cytometry.

[5] = system: HCT116 and HCT116-Rpn13KO cell lines; assay: HCT116 and HCT116-Rpn13KO cell viability; assay type: cell-based; conditions: HCT116 versus HCT116-Rpn13KO; 48 hours; Wst-1
Method: FIGS. 8A and 8B show HCT116 and HCT116-Rpn13KO cell lines that were treated with WL40 or WL44 at the indicated concentrations for 48 hours. Wst-1 assay was used to test cell viability.
CRISPR-Cas9 genome editing was performed to generate Rpn13-knockout (Rpn13-KO) HCT116 and MM.1S cell lines. Cells were transfected with Rpn13-CRISPR/Cas9-knockout (KO) plasmid (Santa Cruz Biotechnology, Inc., Santa Cruz, Calif., USA) using Lipofectamine 2000 (Thermo Fisher Scientific, Waltham, Mass., USA) or the cell line Nucleofector Kit V (Amaxa Biosystems, Cologne, Germany), respectively. After 48 h incubation, green fluorescent protein (GFP)-positive cells were sorted. Rpn13 KO was confirmed by both protein expression studies and DNA sequencing.

[6] = system: Ub-tagged GFP that is constitutively targeted for proteasomal degradation; assay: Ub-GFP (GFPu-1) reporter cell line immunoblot; assay type: cell-based; conditions: WL40, WL44 0.5-2.0 μM; RA190 1 μM; 16 hours
Method: Cell lysates were loaded on SDS-PAGE, transferred to PVDF membrane, then immunoblotted with anti-GFP, and anti beta-actin antibodies.
In FIG. 18, a reporter cell line expressing Ub-tagged GFP that is constitutively targeted for proteasomal degradation was treated with RA190 ([…]); and JQRA ([…]) for 16 hours. Cell lysates were loaded on SDS-PAGE, transferred to PVDF membrane, then immunoblotted with anti-GFP, and anti-alpha tubulin antibodies.
FIGS. 19A-19I show the exemplary design and characterization of exemplary Rpn13 degrader WL40. […] WL40 was created by linking the Rpn13 inhibitor RA190 to the IMiD thalidomide as a ligand for the CRBN E3 ligase via a PEG linker. […] FIG. 19C is a schematic cartoon for the novel AlphaScreen assay to measure the binding activity of inhibitor with RPN13 proteins. […] FIG. 19E depicts immunoblot analysis of multiple myeloma 1S (MM.1S) cells, which were treated with WL40 or RA190 at the indicated concentrations and time periods; protein lysates were subjected to the immunoblot analysis using anti-Rpn13 or anti-tubulin Abs. FIG. 19F depicts flow cytometry analysis of MM.1S cells, which were treated with DMSO control, WL40 (400 nM), or RA190 (500 nM) for 16 hours; cells were then washed and stained with Rpn13 Ab conjugated with AlexaFluor-647, followed by the flow cytometry analysis. Isotype Ab conjugated to AlexaFluor-647 was used as control for non-specific binding. Data was quantified using FACS Diva (BD Biosciences, USA) and FlowJo (FlowJo LLC, USA). FIG. 19G depicts immunoblot analysis of MM.1S-CRBN KO cells, which were treated with WL40 (400 nM) or RA190 (500 nM) for 16 hours; protein lysates were subjected to the immunoblot analysis using anti-Rpn13 or anti β-actin Abs. […]
To confirm that CRBN presence is a prerequisite for the function of WL40 in cells, CRBN-knockout (KO) MM.1S cells^27, 38 were utilized, and the effect of WL40 on Rpn13 degradation was examined. […] GFPu-1 cells were treated with WL40, and GFP levels were then analyzed using immunoblotting. […]

[7] = system: MM.1S cells; assay: MM.1S cell viability (WST); conditions: 24 hours, Wst-1
Method: FIGS. 4A and 4B show multiple myeloma 1S (MM.1S) cells treated with RA190, WL40, and WL44 at the indicated concentrations for 24 hours. Wst-1 assay was used to test cell viability.
In FIG. 13B, multiple myeloma cells (MM.1S) were treated with RA190 or compound JQRA at the indicated concentrations for 72 hours, and the percentage of viable cells was measured.
Purified CD138^+ patient MM cells, which were treated with DMSO control or WL40 at indicated concentrations for 48 hours, followed by assessment for cell viability using CellTiter-Glo assay (mean±SD of triplicate cultures; p<0.001). […] Normal PBMCs from healthy donors were treated with DMSO control or WL40 at indicated concentrations for 48 hours, and then analyzed for cell viability using CellTiter-Glo assay (mean±SD of quadruplicate cultures). […] MM.1S cells were cultured with or without patient BMSCs in the presence or absence of WL40 for 48 hours, and cell proliferation was measured by WST assay (mean±SD; n=3; p<0.0001). […] MM.1S cells were cultured with or without patient pDCs in the presence or absence of WL40 for 48 hours, and cell proliferation was measured by WST assay (mean±SD; n=3; p<0.0001).

RPN13, sequence (Q16186 whole entry): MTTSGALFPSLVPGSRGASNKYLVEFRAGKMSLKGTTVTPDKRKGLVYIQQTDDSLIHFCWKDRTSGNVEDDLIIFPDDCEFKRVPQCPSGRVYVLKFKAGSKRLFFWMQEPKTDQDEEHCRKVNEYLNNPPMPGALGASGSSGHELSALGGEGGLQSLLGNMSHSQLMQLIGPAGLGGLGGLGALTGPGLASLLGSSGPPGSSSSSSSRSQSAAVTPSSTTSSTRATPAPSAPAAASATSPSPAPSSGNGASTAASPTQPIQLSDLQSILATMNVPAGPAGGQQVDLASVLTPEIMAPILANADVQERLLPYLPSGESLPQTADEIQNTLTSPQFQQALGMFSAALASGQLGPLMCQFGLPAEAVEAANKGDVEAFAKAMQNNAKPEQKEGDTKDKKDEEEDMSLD

cell viability IC50 [1]	Rpn13 levels (immunoblot) ([4]; MM.1S cells, 200 nM, 400 nM, 800 nM, 4, 8, 16 hours)	cell viability IC50 [7]	Compound	cell viability [2]	viability of normal PBMCs [3]	RPN13 dependence of cytotoxicity [5]	Ub-GFP levels / proteasome function (immunoblot) [6]	WL40-mediated Rpn13 degradation after proteasome inhibitor pretreatment ([4]; MM.1S, MG132 (10 μM) 1 hour, then WL40 (400 nM) 8 hours)
high IC50 in several cell lines	degrade Rpn13	lower IC50 compared to compound RA190	O=C1CCC(N2C(=O)c3ccc(NCCOCCOCCOCCC(=O)N[C@H](Cc4ccccc4)C(=O)N4C/C(=C\c5ccc(Cl)c(Cl)c5)C(=O)/C(=C/c5ccc(Cl)c(Cl)c5)C4)cc3C2=O)C(=O)N1 (some centres unmarked) [WL44]	decrease cell viability	do not significantly affect the viability	RPN13-dependent	block proteasome function	–
–	–	–	CC(C)C[C@@H](C=O)NC(=O)[C@H](CC(C)C)NC(=O)[C@H](CC(C)C)NC(=O)OCc1ccccc1 [MG132, reference compound] (Cbz-Leu-Leu-Leu-aldehyde)	–	–	–	–	blocked WL40-mediated Rpn13 degradation
